Results published in patent US12653827B2, “Methods of treating indolent systemic mastocytosis” (Telios Pharma Inc., priority 2024, dated 2026).

Columns and labels:
serum tryptase = assay: Serum tryptase in ISM patients; format: in vivo, human; details: 100 mg or 150 mg BID
Description: Also, blood samples were collected at the following timepoints: Cycle 1, Day 1: pre-dose (within 30 minutes prior to the morning dose), 0.5, 1.0, 2.0, 3.0, 4.0, and 6.0 hours (±15 minutes) post-morning dose. Cycle 1, Day 8: pre-dose (within 30 minutes prior to the morning dose) and 2 hours (±15 minutes) post-morning dose. Serum tryptase tests were conducted according to Example 14.
The measurement of serum tryptase can be followed to the procedure described in the literature (McMurray et al., Standardized indolent systemic mastocytosis evaluations across a health care system: implications for screening accuracy, Blood (2024) 144 (4): 408-419). Briefly, the procedure begins with proper patient preparation, avoiding recent physical activity or triggers that could cause mast cell activation. Venous blood samples, preferably drawn when the patient is not experiencing acute symptoms, are collected in serum separator tubes (SSTs) or plain red-top tubes, with approximately 5 mL of blood needed for analysis. After collection, the blood is allowed to clot at room temperature for 30-60 minutes before centrifugation for 10-15 minutes. The serum is then carefully separated from the cells and stored at 2-8° C. for short-term analysis or frozen at −20° C. or lower for long-term storage. […]

mast cells = assay: Potency across healthy and ISM mast cells (FIG. 16); format: cell-based; details: presence of SCF; CD63, CD203, pBTK, histamine, calcium flux
Description: Healthy BM-MC donor 0166 and ISM WB-MC 1061-004 17 Jan. 2024 and 17 Oct. 2024. Experiments performed in the presence of SCF. Sensitization and Stimulation: NP-IgE (100 ng/mL) 18 hrs, NP-BSA (0.5 ng/mL) for 15 min at 37° C. (CD63, CD203, pBTK and histamine) or 4 min at RT (Calcium Flux).

[1] = system: downstream signaling proteins; assay: Downstream signaling proteins in antigen-stimulated mast cells (FIG. 20); format: cell-based; details: mast cells stimulated with an antigen
[2] = system: IL-8, MCP-1, GM-CSF and IL-13; assay: MRGPRX2-mediated cytokine production in ISM-like mast cells; format: cell-based, human
Description: Human mast cells were differentiated from bone marrow CD34+ cells from four healthy donors and were cultured in the presence of SCF (100 ng/mL) to mimic mast cells in ISM and treated with Compound 128 for two hours prior to stimulation. Mas-related G protein-coupled receptor (MRGPRX2) agonists, Compound 48/80 (C48/80; a product of N-methyl-p-methoxyphenethylamine with formaldehyde) or Substance P (SP) were used to activate the MRGPRX2 pathway. For pBTK test, cells were stimulated with C48/80 (10 μg/mL) for ten minutes at 37° C. and cells were stained. The median fluorescence intensity of phosphorylated BTK was measured. The fold change over unstimulated control for pBTK was calculated. For cytokine test, cells were stimulated with C48/80 (10 μg/mL) or SP (30 μM) for four hours at 37° C. Supernatant was collected and cytokine levels were measured using the BD Cytometric Bead Array (CBA) human soluble protein master buffer kit (Becton Dickinson) and BD CBA human soluble protein flex sets for IL-8, MCP-1, GM-CSF and IL-13 (Becton Dickinson). Cytokine levels were measured and normalized to percent of control, with 0% representing the level of the unstimulated control.

IL-4 = assay: Anti-IgE induced IL-4 production from basophils in whole blood; format: cell-based, human; details: whole blood from a healthy donor, treated two hours, anti-IgE six hours
Description: Human mast cells lines, ROSA with wildtype KIT and ROSA […] with D816V KIT mutation (ISM-like cells), were licensed from CRNS Innovation and cultured with or without stem cell factor (100 ng/mL), respectively (FIG. 12A). ROSA cells were stimulated with IL-4 (20 ng/mL; R&D Systems) for 18 hours, stained for FcεRIα(Becton Dickinson) for 30 minutes on ice, washed twice with FACS buffer and data was acquired on a flow cytometer. The median fluorescence intensity of FcεRIα was measured. […] Whole blood from a healthy donor was treated with Compound 128 for two hours and the basophils were stimulated with anti-IgE (1 μg/mL; Beckman Coulter) for six hours (FIG. 12B). Plasma was collected and IL-4 levels were measured using the BD CBA human soluble protein master buffer kit and BD CBA human soluble protein flex set for IL-4 (Becton Dickinson). A four-parameter logistic regression analysis was performed on the cytokine levels to determine the EC50 and EC90. […] Therefore, Compound 128 may indirectly effect FcεRI expression by the reduction of IL-4 levels.

[3] = system: calcium influx in mast cell; assay: IgE-mediated calcium influx in ISM patient mast cells (FIG. 17); format: cell-based; details: presence of SCF
Description: Mast cell from an ISM patient was treated with Compound 128 at 50 mg, 75 mg, 100 mg, and 150 mg BID dose prior to antigen (Ag) stimulation. ISM 3-2 mast cell donor MC 1061-004 C1D8 D39. Experiments performed in the presence of SCF. […] Percent of Control (POC) based on Area-under-Curve above baseline (1st value).

## C=CC(=O)N1CCC(F)(CNc2ncnc(N)c2-c2ccc(Oc3ccccc3)cc2)CC1 [Compound 128, 1-(4-(((6-amino-5-(4-phenoxyphenyl)pyrimidin-4-yl)amino)methyl)-4-fluoropiperidin-1-yl)prop-2-en-1-one]
Serum tryptase
  reduction in serum tryptase: effective in reducing serum tryptase levels
Mast cells
  potency across healthy mast cells and ISM mast cells: equipotent
[1]
  activation of multiple downstream signaling proteins: can be inhibited
[2]; 0.1 μM
  MRGPRX2-mediated cytokine production: partially inhibited
[2]; 0.5 and 1 μM
  MRGPRX2-mediated cytokine production: inhibition of cytokine production was increased
[2]; C48/80 (10 μg/mL) stimulation
  C48/80-mediated cytokine production: partial inhibition
[2]; FIGS. 15A-C
  MRGPRX2-mediated cytokine production in ISM-like mast cells (figure legend): inhibits
[2]; Substance P (30 μM) stimulation
  SP-mediated cytokine production: fully inhibited
IL-4
  IgE-mediated IL-4 production: potently inhibited
[3]
  inhibition of IgE-mediated calcium influx: potently inhibits
